From patent publication US20210395239A1 (Hoffmann-La Roche Inc., priority 2018, published 2021)

These molecules were tested against T1, hTLR9 (Homo sapiens, UniProt Q9NR96) (assay: HEK293-Blue-hTLR-9 cells assay (SEAP reporter, ODN2006 stimulation)). Settings: HEK293-Blue-hTLR9 cells, ODN2006, 20 hrs; read-out: HEK/hTLR9 IC50.
T1 sequence (Q9NR96 26-1032): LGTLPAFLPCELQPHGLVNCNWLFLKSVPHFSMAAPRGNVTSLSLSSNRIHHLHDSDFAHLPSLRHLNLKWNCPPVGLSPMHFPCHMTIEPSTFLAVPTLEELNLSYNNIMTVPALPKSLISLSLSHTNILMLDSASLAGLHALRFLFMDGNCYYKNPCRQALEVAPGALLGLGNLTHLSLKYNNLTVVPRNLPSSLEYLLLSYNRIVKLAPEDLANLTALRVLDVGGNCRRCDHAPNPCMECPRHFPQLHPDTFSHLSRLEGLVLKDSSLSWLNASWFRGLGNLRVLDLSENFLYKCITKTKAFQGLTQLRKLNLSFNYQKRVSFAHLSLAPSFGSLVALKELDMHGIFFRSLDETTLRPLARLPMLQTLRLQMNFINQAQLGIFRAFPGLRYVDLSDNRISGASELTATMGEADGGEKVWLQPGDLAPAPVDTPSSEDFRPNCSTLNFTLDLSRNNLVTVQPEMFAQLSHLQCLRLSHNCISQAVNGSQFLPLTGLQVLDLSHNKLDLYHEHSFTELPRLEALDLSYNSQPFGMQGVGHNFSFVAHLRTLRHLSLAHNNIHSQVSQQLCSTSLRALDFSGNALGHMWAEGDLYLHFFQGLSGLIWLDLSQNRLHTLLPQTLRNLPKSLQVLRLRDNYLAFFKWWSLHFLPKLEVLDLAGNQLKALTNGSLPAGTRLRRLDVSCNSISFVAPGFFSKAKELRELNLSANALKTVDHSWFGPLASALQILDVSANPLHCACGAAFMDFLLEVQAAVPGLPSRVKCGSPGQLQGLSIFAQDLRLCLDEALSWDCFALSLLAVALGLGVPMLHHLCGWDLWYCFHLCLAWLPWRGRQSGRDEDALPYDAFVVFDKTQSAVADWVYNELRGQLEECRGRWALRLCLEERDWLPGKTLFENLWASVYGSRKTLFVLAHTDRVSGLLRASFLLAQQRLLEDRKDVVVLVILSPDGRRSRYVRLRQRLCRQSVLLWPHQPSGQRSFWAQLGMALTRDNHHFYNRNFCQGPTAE
Format: cell-based
Design: host or cells: HEK293 (HEK-Blue hTLR9)
Procedure, shortened: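 Antagonism read as lowered SEAP reporter absorbance (620–655 nm, QUANTI-Blue, 2 h, 37 °C) in supernatants. Before that, ODN2006-stimulated HEK293-Blue cells stably expressing human TLR9 were exposed to compound dilutions at 1% final DMSO for 20 h at 37 °C.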
`[2H]c1ccc2c(N3C[C@H](CN4CCN(c5ccc(N6C[C@@H]7C[C@H]6CN7)nc5)CC4)O[C@H](C)C3)ccc(C#N)c2n1` [Example 151, 2-deuterio-5-[(2S,6R)-2-[[4-[6-[(1S,4S)-2,5-diazabicyclo[2.2.1]heptan-2-yl]-3-pyridyl]piperazin-1-yl]methyl]-6-methyl-morpholin-4-yl]quinoline-8-carbonitrile] showed an IC50 of 96 nM. With `CO[C@H]1CN(c2cc(C)nc(N3CCN(C[C@H]4CN(c5ccc(C#N)c6nccnc56)C[C@@H](C)O4)CC3)n2)C[C@@H]1N` [Example 104, 8-[(2S,6R)-2-[[4-[4-[(3S,4S)-3-amino-4-methoxy-pyrrolidin-1-yl]-6-methyl-pyrimidin-2-yl]piperazin-1-yl]methyl]-6-methyl-morpholin-4-yl]quinoxaline-5-carbonitrile] the IC50 was 70 nM. Work on `[2H]c1ccc2c(N3C[C@H](CN4CCN(c5cnc(N6CC(C)(N)C6)cc5C)CC4)O[C@H](C)C3)ccc(C#N)c2n1` [Example 133, 5-[(2S,6R)-2-[[4-[6-(3-amino-3-methyl-azetidin-1-yl)-4-methyl-3-pyridyl]piperazin-1-yl]methyl]-6-methyl-morpholin-4-yl]-2-deuterio-quinoline-8-carbonitrile] yielded an IC50 of 68 nM. `Cc1ccc(N2C[C@H](CN3CCN(c4ccnc(N5CCNCC5)n4)CC3)O[C@H](C)C2)c2nccnc12` [Example 117, (2R,6S)-2-methyl-4-(8-methylquinoxalin-5-yl)-6-[[4-(2-piperazin-1-ylpyrimidin-4-yl)piperazin-1-yl]methyl]morpholine] gave an IC50 of 109 nM. Work on `C[C@@H]1CN(c2ccc(C#N)c3ncccc23)C[C@H](CN2CCN(c3cnc(N4CCNCC4)cn3)CC2)O1` [Example 6, 5-[(2R,6S)-2-methyl-6-[[4-(5-piperazin-1-ylpyrazin-2-yl)piperazin-1-yl]methyl]morpholin-4-yl]quinoline-8-carbonitrile] yielded an IC50 of 120 nM. For `[2H]c1ccc2c(N3C[C@H](CN4CCN(c5ccc(N6CC(C)(N)C6)c(C)n5)CC4)O[C@H](C)C3)ccc(C#N)c2n1` [Example 147, 5-[(2S,6R)-2-[[4-[5-(3-amino-3-methyl-azetidin-1-yl)-6-methyl-2-pyridyl]piperazin-1-yl]methyl]-6-methyl-morpholin-4-yl]-2-deuterio-quinoline-8-carbonitrile], the IC50 was 181 nM. `COc1cc(N2CCN(C[C@H]3CN(c4ccc(C#N)c5ncccc45)C[C@@H](C)O3)CC2)nc(N2CCNCC2)n1` [Example 91, 5-[(2S,6R)-2-[[4-(6-methoxy-2-piperazin-1-yl-pyrimidin-4-yl)piperazin-1-yl]methyl]-6-methyl-morpholin-4-yl]quinoline-8-carbonitrile] gave an IC50 of 102 nM. With `[2H]c1ccc2c(N3C[C@H](CN4CCN(c5ccc(N[C@H]6CNC[C@H]6F)nc5)CC4)O[C@H](C)C3)ccc(C#N)c2n1` [Example 162, 2-deuterio-5-[(2S,6R)-2-[[4-[6-[[(3S,4R)-4-fluoropyrrolidin-3-yl]amino]-3-pyridyl]piperazin-1-yl]methyl]-6-methyl-morpholin-4-yl]quinoline-8-carbonitrile] the IC50 was 36 nM. Molecule `[2H]c1ccc2c(N3C[C@H](CN4CCN(c5nc(OC)cc(N6CC(C)(N)C6)n5)CC4)O[C@H](C)C3)ccc(C#N)c2n1` [Example 131, 5-[(2S,6R)-2-[[4-[4-(3-amino-3-methyl-azetidin-1-yl)-6-methoxy-pyrimidin-2-yl]piperazin-1-yl]methyl]-6-methyl-morpholin-4-yl]-2-deuterio-quinoline-8-carbonitrile] has an IC50 of 113 nM. `CO[C@@H]1CN(c2cc(C)nc(N3CCN(C[C@H]4CN(c5ccc(C#N)c6nccnc56)C[C@@H](C)O4)CC3)n2)C[C@H]1N` [Example 121, 8-[(2S,6R)-2-[[4-[4-[(3R,4R)-3-amino-4-methoxy-pyrrolidin-1-yl]-6-methyl-pyrimidin-2-yl]piperazin-1-yl]methyl]-6-methyl-morpholin-4-yl]quinoxaline-5-carbonitrile] showed an IC50 of 44 nM. `[2H]c1ccc2c(N3C[C@H](CN4CCN(c5cccc(N6CC(C)(N)C6)n5)CC4)O[C@H](C)C3)ccc(C#N)c2n1` [Example 155, 5-[(2S,6R)-2-[[4-[6-(3-amino-3-methyl-azetidin-1-yl)-2-pyridyl]piperazin-1-yl]methyl]-6-methyl-morpholin-4-yl]-2-deuterio-quinoline-8-carbonitrile] was tested, and the IC50 was 71 nM. For `CO[C@@H]1CN(c2nccc(N3CCN(C[C@H]4CN(c5ccc(C#N)c6nccnc56)C[C@@H](C)O4)CC3)n2)C[C@H]1N` [Example 98, 8-[(2S,6R)-2-[[4-[2-[(3R,4R)-3-amino-4-methoxy-pyrrolidin-1-yl]pyrimidin-4-yl]piperazin-1-yl]methyl]-6-methyl-morpholin-4-yl]quinoxaline-5-carbonitrile], the IC50 was 49 nM. For `[2H]c1ccc2c(N3C[C@H](CN4CC(c5ccc(N6C[C@H](OC)[C@@H](N)C6)cc5)C4)O[C@H](C)C3)ccc(C#N)c2n1` [Example 140, 5-[(2S,6R)-2-[[3-[4-[(3S,4S)-3-amino-4-methoxy-pyrrolidin-1-yl]phenyl]azetidin-1-yl]methyl]-6-methyl-morpholin-4-yl]-2-deuterio-quinoline-8-carbonitrile], the IC50 was 162 nM. `C[C@@H]1CN(c2ccc(C#N)c3ncccc23)C[C@H](CN2CCN(c3ccnc(N4C[C@H]5NCCO[C@@H]5C4)n3)CC2)O1` [Example 103, 5-[(2S,6R)-2-[[4-[2-[(4aR,7aR)-3,4,4a,5,7,7a-hexahydro-2H-pyrrolo[3,4-b][1,4]oxazin-6-yl]pyrimidin-4-yl]piperazin-1-yl]methyl]-6-methyl-morpholin-4-yl]quinoline-8-carbonitrile] was tested, and the IC50 was 100 nM. Molecule `[2H]c1ccc2c(N3C[C@H](CN4CCN(c5nc(C)cc(N6C[C@@H](N)[C@H](OC)C6)n5)CC4)O[C@H](C)C3)ccc(C#N)c2n1` [Example 144, 5-[(2S,6R)-2-[[4-[4-[(3R,4R)-3-amino-4-methoxy-pyrrolidin-1-yl]-6-methyl-pyrimidin-2-yl]piperazin-1-yl]methyl]-6-methyl-morpholin-4-yl]-2-deuterio-quinoline-8-carbonitrile] has an IC50 of 31 nM. With `Cc1cc(N2CCN(C[C@H]3CN(c4ccc(C#N)c5nccnc45)C[C@@H](C)O3)CC2)nc(N2CC(N)C2)n1` [Example 112, 8-[(2S,6R)-2-[[4-[2-(3-aminoazetidin-1-yl)-6-methyl-pyrimidin-4-yl]piperazin-1-yl]methyl]-6-methyl-morpholin-4-yl]quinoxaline-5-carbonitrile] the IC50 was 65 nM. `C[C@@H]1CN(c2ccc(C#N)c3ncccc23)C[C@H](CN2CCC(c3cccc(N4CCNCC4)c3)C2)O1` (stereo partly drawn) [Example 1, 5-[(2R,6S)-2-methyl-6-[[3-(3-piperazin-1-ylphenyl)pyrrolidin-1-yl]methyl]morpholin-4-yl]quinoline-8-carbonitrile] was tested, and the IC50 was 136 nM. In the case of `Cc1ccc(N2C[C@H](CN3CCN(c4nccc(N5CCNCC5)n4)CC3)O[C@H](C)C2)c2nccnc12` [Example 116, (2R,6S)-2-methyl-4-(8-methylquinoxalin-5-yl)-6-[[4-(4-piperazin-1-ylpyrimidin-2-yl)piperazin-1-yl]methyl]morpholine], the IC50 is reported as 89 nM. Molecule `C[C@@H]1CN(c2ccc(C#N)c3ncccc23)C[C@H](CN2CC(c3ccc(N4CCNCC4)cc3)C2)O1` [Example 3, 5-[(2R,6S)-2-methyl-6-[[3-(4-piperazin-1-ylphenyl)azetidin-1-yl]methyl]morpholin-4-yl]quinoline-8-carbonitrile] has an IC50 of 52 nM. With `C[C@@H]1CN(c2ccc(C#N)c3nccnc23)C[C@H](CN2CCN(c3ccnc(N4C[C@@H](N)[C@@H](F)C4)n3)CC2)O1` [Example 108, 8-[(2S,6R)-2-[[4-[2-[(3R,4S)-3-amino-4-fluoro-pyrrolidin-1-yl]pyrimidin-4-yl]piperazin-1-yl]methyl]-6-methyl-morpholin-4-yl]quinoxaline-5-carbonitrile] the IC50 was 68 nM. For `CO[C@H]1CN(c2nc(C)cc(N3CCN(C[C@H]4CN(c5ccc(C#N)c6nccnc56)C[C@@H](C)O4)CC3)n2)C[C@@H]1N` [Example 106, 8-[(2S,6R)-2-[[4-[2-[(3S,4S)-3-amino-4-methoxy-pyrrolidin-1-yl]-6-methyl-pyrimidin-4-yl]piperazin-1-yl]methyl]-6-methyl-morpholin-4-yl]quinoxaline-5-carbonitrile], the IC50 was 46 nM.
